The structures appear in SMILES notation.

This experiment deals with T1, Vitamin D3 receptor (Homo sapiens) (UniProt P11473).
T1 sequence (whole entry): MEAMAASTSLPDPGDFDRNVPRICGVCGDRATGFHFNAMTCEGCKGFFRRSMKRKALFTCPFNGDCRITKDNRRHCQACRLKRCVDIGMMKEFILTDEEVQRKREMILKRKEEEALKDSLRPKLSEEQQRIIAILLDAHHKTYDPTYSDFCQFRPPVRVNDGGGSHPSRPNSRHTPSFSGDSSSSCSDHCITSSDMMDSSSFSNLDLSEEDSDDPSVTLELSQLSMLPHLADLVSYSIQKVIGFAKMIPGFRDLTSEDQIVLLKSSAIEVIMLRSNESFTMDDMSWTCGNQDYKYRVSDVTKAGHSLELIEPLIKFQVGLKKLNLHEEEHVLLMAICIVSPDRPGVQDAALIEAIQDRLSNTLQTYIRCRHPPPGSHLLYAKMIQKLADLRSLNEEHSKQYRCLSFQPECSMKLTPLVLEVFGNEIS
Nature of the experiment: Antagonist activity against 1-alpha,25-dihydroxy vitamin D3-induced HL60 cell differentiation by NBT reduction method relative to TEI-9647. The note with it: HL-60. The arrangement: scale not given: the % may be the effect or the level left. The experiment is classed as functional, cell-based.
`C=C1/C(=C\C=C2/CCC[C@]3(C)[C@@H]([C@H](C)C[C@H]4OC(=O)C(=C)[C@@H]4CC)CC[C@@H]23)C[C@@H](O)[C@H](CCCO)[C@@H]1O` came in with an Activity of 37%.
For `C=C1/C(=C\C=C2/CCC[C@]3(C)[C@@H]([C@H](C)C[C@@H]4OC(=O)C(=C)[C@@H]4CC(C)C)CC[C@@H]23)C[C@@H](O)[C@H](C)[C@@H]1O`, the Activity stood at 1220%.
`C=C1/C(=C\C=C2/CCC[C@]3(C)[C@@H]([C@H](C)C[C@H]4OC(=O)C(=C)C4(C)C)CC[C@@H]23)C[C@@H](O)C[C@@H]1O` gave an Activity of 16%.
Next, `C=C1/C(=C\C=C2/CCC[C@]3(C)[C@@H]([C@H](C)C[C@H]4OC(=O)C(=C)[C@H]4CCC)CC[C@@H]23)C[C@@H](O)[C@H](OCCCO)[C@@H]1O`: 97%; `C=C1C(=O)O[C@@H](C[C@@H](C)[C@H]2CC[C@H]3/C(=C/C=C4/C[C@@H](O)[C@H](C)[C@H](O)C4=C)CCC[C@]23C)[C@@H]1C`: 6190%.
Next, `C=C1/C(=C\C=C2/CCC[C@]3(C)[C@@H]([C@H](C)C[C@H]4OC(=O)C(=C)[C@H]4CCCC)CC[C@@H]23)C[C@@H](O)[C@H](C)[C@@H]1O`: 102%; `C=C1/C(=C\C=C2/CCC[C@]3(C)[C@@H]([C@H](C)C[C@@H]4OC(=O)C(=C)[C@@H]4C)CC[C@@H]23)C[C@@H](O)[C@H](C)[C@@H]1O`: 3750%; `C=C1C(=O)O[C@@H](C[C@@H](C)[C@H]2CC[C@H]3/C(=C/C=C4/C[C@@H](O)C[C@H](O)C4=C)CCC[C@]23C)[C@@H]1CC(C)C`: 40%.
Take `C=C1/C(=C\C=C2/CCC[C@]3(C)[C@@H]([C@H](C)C[C@H]4OC(=O)C(=C)[C@H]4CC)CC[C@@H]23)C[C@@H](O)[C@H](C)[C@@H]1O`: the Activity stood at 74%.
With `C=C1C[C@@H](C[C@@H](C)[C@H]2CC[C@H]3/C(=C/C=C4/C[C@@H](O)[C@H](CCCO)[C@H](O)C4=C)CCC[C@]23C)OC1=O` the figure was 100%; with `C=C1/C(=C\C=C2/CCC[C@]3(C)[C@@H]([C@H](C)C[C@@H]4OC(=O)C(=C)[C@H]4CCCC)CC[C@@H]23)C[C@@H](O)[C@H](C)[C@@H]1O`, 216%; with `C=C1/C(=C\C=C2/CCC[C@]3(C)[C@@H]([C@H](C)C[C@@H]4OC(=O)C(=C)[C@@H]4C)CC[C@@H]23)C[C@@H](O)C[C@@H]1O`, 220%.
Take `C=C1/C(=C\C=C2/CCC[C@]3(C)[C@@H]([C@H](C)C[C@H]4OC(=O)C(=C)[C@@H]4CCC)CC[C@@H]23)C[C@@H](O)[C@H](CCCO)[C@@H]1O`: the Activity was determined as 573%.
For `C=C1/C(=C\C=C2/CCC[C@]3(C)[C@@H]([C@H](C)C[C@H]4OC(=O)C(=C)[C@@H]4CCC)CC[C@@H]23)C[C@@H](O)[C@H](OCCCO)[C@@H]1O`, the Activity came out at 124%.
With `C=C1/C(=C\C=C2/CCC[C@]3(C)[C@@H]([C@H](C)C[C@H]4OC(=O)C(=C)[C@H]4CC(C)C)CC[C@@H]23)C[C@@H](O)[C@H](CCCO)[C@@H]1O` the figure was 31%; with `C=C1/C(=C\C=C2/CCC[C@]3(C)[C@@H]([C@H](C)C[C@@H]4OC(=O)C(=C)[C@@H]4CCC)CC[C@@H]23)C[C@@H](O)C[C@@H]1O`, 86%.
With `C=C1/C(=C\C=C2/CCC[C@]3(C)[C@@H]([C@H](C)C[C@@H]4OC(=O)C(=C)[C@@H]4CC(C)C)CC[C@@H]23)C[C@@H](O)C[C@@H]1O` the figure was 174%.
As for `C=C1C(=O)O[C@@H](C[C@@H](C)[C@H]2CC[C@H]3/C(=C/C=C4/C[C@@H](O)C[C@H](O)C4=C)CCC[C@]23C)[C@@H]1CC`, the Activity was 70%.
As to `C=C1C[C@H](C[C@@H](C)[C@H]2CC[C@H]3/C(=C/C=C4/C[C@@H](O)[C@H](C)[C@H](O)C4=C)CCC[C@]23C)OC1=O`, the Activity was 1020%.
In the case of `C=C1/C(=C\C=C2/CCC[C@]3(C)[C@@H]([C@H](C)C[C@H]4OC(=O)C(=C)[C@@H]4C)CC[C@@H]23)C[C@@H](O)[C@H](C)[C@@H]1O`, the Activity is 85%.
For the molecule `C=C1C(=O)O[C@H](C[C@@H](C)[C@H]2CC[C@H]3/C(=C/C=C4/C[C@@H](O)C[C@H](O)C4=C)CCC[C@]23C)[C@@H]1CCC`, the Activity was 38%.
`C=C1/C(=C\C=C2/CCC[C@]3(C)[C@@H]([C@H](C)C[C@H]4OC(=O)C(=C)[C@H]4CCCC)CC[C@@H]23)C[C@@H](O)[C@H](OCCCO)[C@@H]1O` returned an Activity of 37%.
Next, `C=C1/C(=C\C=C2/CCC[C@]3(C)[C@@H]([C@H](C)C[C@@H]4OC(=O)C(=C)[C@@H]4CCCC)CC[C@@H]23)C[C@@H](O)[C@H](CCCO)[C@@H]1O`: 1160%; `C=C1/C(=C\C=C2/CCC[C@]3(C)[C@@H]([C@H](C)C[C@H]4OC(=O)C(=C)[C@H]4CCC)CC[C@@H]23)C[C@@H](O)[C@H](C)[C@@H]1O`: 170%; `C=C1C[C@H](C[C@@H](C)[C@H]2CC[C@H]3/C(=C/C=C4/C[C@@H](O)[C@H](OCCCO)[C@H](O)C4=C)CCC[C@]23C)OC1=O`: 1160%.
With `C=C1/C(=C\C=C2/CCC[C@]3(C)[C@@H]([C@H](C)C[C@H]4OC(=O)C(=C)[C@@H]4CC)CC[C@@H]23)C[C@@H](O)[C@H](OCCCO)[C@@H]1O` the figure was 25%; with `C=C1/C(=C\C=C2/CCC[C@]3(C)[C@@H]([C@H](C)C[C@@H]4OC(=O)C(=C)C4(C)C)CC[C@@H]23)C[C@@H](O)C[C@@H]1O`, 1170%.
`C=C1/C(=C\C=C2/CCC[C@]3(C)[C@@H]([C@H](C)C[C@H]4OC(=O)C(=C)[C@@H]4CC(C)C)CC[C@@H]23)C[C@@H](O)[C@H](CCCO)[C@@H]1O`: the Activity was 32%.
Next, `C=C1/C(=C\C=C2/CCC[C@]3(C)[C@@H]([C@H](C)C[C@@H]4OC(=O)C(=C)[C@@H]4CCCC)CC[C@@H]23)C[C@@H](O)C[C@@H]1O`: 179%; `C=C1/C(=C\C=C2/CCC[C@]3(C)[C@@H]([C@H](C)C[C@H]4OC(=O)C(=C)[C@@H]4C)CC[C@@H]23)C[C@@H](O)[C@H](OCCCO)[C@@H]1O`: 12%.
The molecule `C=C1/C(=C\C=C2/CCC[C@]3(C)[C@@H]([C@H](C)C[C@@H]4OC(=O)C(=C)[C@@H]4C)CC[C@@H]23)C[C@@H](O)[C@H](CCCO)[C@@H]1O` yielded an Activity of 517%.
Molecule `C=C1/C(=C\C=C2/CCC[C@]3(C)[C@@H]([C@H](C)C[C@@H]4OC(=O)C(=C)[C@@H]4CCCC)CC[C@@H]23)C[C@@H](O)[C@H](OCCCO)[C@@H]1O` yielded an Activity of 1660%.
`C=C1/C(=C\C=C2/CCC[C@]3(C)[C@@H]([C@H](C)C[C@H]4OC(=O)C(=C)[C@H]4CC)CC[C@@H]23)C[C@@H](O)[C@H](CCCO)[C@@H]1O` registered an Activity of 18%.
Next, `C=C1/C(=C\C=C2/CCC[C@]3(C)[C@@H]([C@H](C)C[C@H]4OC(=O)C(=C)[C@@H]4CCCC)CC[C@@H]23)C[C@@H](O)[C@H](C)[C@@H]1O`: 1%; `C=C1/C(=C\C=C2/CCC[C@]3(C)[C@@H]([C@H](C)C[C@H]4OC(=O)C(=C)[C@@H]4CCC)CC[C@@H]23)C[C@@H](O)C[C@@H]1O`: 8%.
In turn, `C=C1C(=O)O[C@@H](C[C@@H](C)[C@H]2CC[C@H]3/C(=C/C=C4/C[C@@H](O)C[C@H](O)C4=C)CCC[C@]23C)[C@@H]1CCCC` showed an Activity of 58%.
With `C=C1C(=O)O[C@@H](C[C@@H](C)[C@H]2CC[C@H]3/C(=C/C=C4/C[C@@H](O)[C@H](OCCCO)[C@H](O)C4=C)CCC[C@]23C)[C@@H]1C` the figure was 1740%.

Values taken from ChEMBL document CHEMBL1137357, “Further synthetic and biological studies on vitamin D hormone antagonists based on C24-alkylation and C2alpha-functionalization of 25-dehydro-1alpha-hydroxyvitamin D(3)-26,23-lactones” (J Med Chem, 2006).
